Experimental data as given in ChEMBL document CHEMBL5331045, “Recent advances in β-lactamase inhibitor chemotypes and inhibition modes” (Eur J Med Chem, 2022).
Values belong to the molecule of their own block, whether it stands above or below them.

Columns and labels:
[1] = Inhibition of Aeromonas hydrophila VIM2 preincubated for 30 mins followed by nitrocefin solution measured by UV based microtitre plate analysis
[2] = Inhibition of Aeromonas hydrophila VIM4 preincubated for 30 mins followed by nitrocefin solution measured by UV based microtitre plate analysis
[3] = Inhibition of Aeromonas hydrophila NDM1 preincubated for 30 mins followed by nitrocefin solution measured by UV based microtitre plate analysis
[4] = Binding affinity to VIM2 (unknown origin) assessed as inhibition constant; set-up: species or system Bacteria
[5] = Binding affinity to NDM1 (unknown origin) assessed as inhibition constant; set-up: species or system Bacteria
[6] = Binding affinity to IMP1 (unknown origin) assessed as inhibition constant; set-up: species or system Bacteria
[7] = Binding affinity to Sfh1 (unknown origin) assessed as inhibition constant; set-up: species or system Homo sapiens
[8] = Binding affinity to L1 (unknown origin) assessed as inhibition constant; set-up: species or system Homo sapiens
[9] = Binding affinity to VIM2 (unknown origin) expressed in Escherichia coli BL21 (DE3) assessed as inhibition constant using IPM as substrate incubated for 5 mins; set-up: species or system Homo sapiens
[10] = Binding affinity to IMP1 (unknown origin) expressed in Escherichia coli BL21 (DE3) assessed as inhibition constant using IPM as substrate incubated for 5 mins; set-up: species or system Homo sapiens
[11] = Inhibition of IMP1 (unknown origin); set-up: species or system Bacteria
[12] = biological target: T1, Beta-lactamase VIM-1 (Bacteria, UniProt Q8GDC1); assay: Inhibition of VIM1 (unknown origin)
[13] = Binding affinity to VIM4 (unknown origin) assessed as inhibition constant; set-up: species or system Homo sapiens
[14] = biological target: T1, Beta-lactamase VIM-1; assay: Binding affinity to VIM1 (unknown origin) assessed as inhibition constant
[15] = biological target: T2, Metallo-beta-lactamase type 2 (Bacteria, UniProt C7C422); assay: Inhibition of NDM1 (unknown origin) using cefazolin as substrate
[16] = Inhibition of IMP1 (unknown origin) using cefazolin as substrate; set-up: species or system Homo sapiens
[17] = Inhibition of Imis (unknown origin) using cefazolin as substrate; set-up: species or system Homo sapiens
[18] = Inhibition of L1 (unknown origin) using cefazolin as substrate; set-up: species or system Homo sapiens
[19] = Inhibition of VIM2 (unknown origin); set-up: species or system Bacteria
[20] = biological target: T2, Metallo-beta-lactamase type 2; assay: Inhibition of NDM1 (unknown origin); conditions: read-out: pIC50 (converted)
[21] = Inhibition of VIM2 (unknown origin) by spectroscopic analysis; set-up: species or system Homo sapiens
[22] = Inhibition of VIM2 (unknown origin) using nitrocefin as substrate incubated for 30 mins; set-up: species or system Homo sapiens
[23] = Inhibition of IMP1 (unknown origin) using nitrocefin as substrate incubated for 30 mins; set-up: species or system Homo sapiens
[24] = biological target: T2, Metallo-beta-lactamase type 2; assay: Inhibition of NDM1 (unknown origin) by spectroscopic analysis
[25] = Inhibition of IMP1 (unknown origin) by spectroscopic analysis; set-up: species or system Homo sapiens
[26] = Inhibition of L1 (unknown origin) by spectroscopic analysis; set-up: species or system Homo sapiens
[27] = Inhibition of Escherichia coli beta-lactamase CMY-2
[28] = biological target: Beta-lactamase TEM-1 (Escherichia coli, UniProt Q4GY26); assay: Inhibition of Escherichia coli beta-lactamase TEM-1
[29] = biological target: Beta-lactamase CTX-M-14 (Escherichia coli, UniProt Q9L5C7); assay: Inhibition of Escherichia coli beta-lactamase CTX-M-14
[30] = Inhibition of Escherichia coli beta-lactamase CTX-M-15
[31] = Inhibition of Escherichia coli beta-lactamase CTX-M-44
[32] = biological target: Beta-lactamase (Enterobacter cloacae, UniProt P05364); assay: Inhibition of Enterobacter cloacae AmpC
[33] = biological target: Beta-lactamase OXA-1 (Escherichia coli, UniProt P13661); assay: Inhibition of Escherichia coli beta-lactamase OXA-1
[34] = Inhibition of Pseudomonas aeruginosa beta-lactamase OXA-2
[35] = Inhibition of CphA (unknown origin); set-up: species or system Homo sapiens
[36] = Inhibition of Aeromonas hydrophila IMP1 preincubated for 30 mins followed by nitrocefin solution measured by UV based microtitre plate analysis
[37] = Inhibition of Escherichia coli beta-lactamase TEM-10
[38] = biological target: Carbapenem-hydrolyzing beta-lactamase KPC (Klebsiella pneumoniae, UniProt Q9F663); assay: Inhibition of Klebsiella pneumoniae beta-lactamase KPC-2
[39] = biological target: Beta-lactamase OXA-23 (Acinetobacter baumannii, UniProt Q9L4P2); assay: Inhibition of Acinetobacter baumannii beta-lactamase OXA-23
[40] = Inhibition of VIM2 (unknown origin) using fluorescent cephalosporin FC5 as substrate incubated for 15 mins followed by substrate addition measured by fluorescence based analysis; set-up: species or system Homo sapiens
[41] = biological target: T2, Metallo-beta-lactamase type 2; assay: Inhibition of NDM1 (unknown origin) using fluorescent cephalosporin FC5 as substrate incubated for 15 mins followed by substrate addition measured by fluorescence based analysis
[42] = Inhibition of IMP28 (unknown origin) using fluorescent cephalosporin FC5 as substrate incubated for 15 mins followed by substrate addition measured by fluorescence based analysis; set-up: species or system Homo sapiens

T2 sequence (C7C422 whole entry): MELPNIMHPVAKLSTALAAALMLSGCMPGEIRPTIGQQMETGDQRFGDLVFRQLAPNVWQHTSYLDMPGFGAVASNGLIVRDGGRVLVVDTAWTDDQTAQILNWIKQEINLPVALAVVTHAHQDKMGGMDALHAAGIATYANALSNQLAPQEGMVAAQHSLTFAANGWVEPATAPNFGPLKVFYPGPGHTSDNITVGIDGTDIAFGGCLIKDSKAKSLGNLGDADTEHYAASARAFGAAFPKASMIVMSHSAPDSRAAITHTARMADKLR
Sequence of Beta-lactamase (P05364 whole entry): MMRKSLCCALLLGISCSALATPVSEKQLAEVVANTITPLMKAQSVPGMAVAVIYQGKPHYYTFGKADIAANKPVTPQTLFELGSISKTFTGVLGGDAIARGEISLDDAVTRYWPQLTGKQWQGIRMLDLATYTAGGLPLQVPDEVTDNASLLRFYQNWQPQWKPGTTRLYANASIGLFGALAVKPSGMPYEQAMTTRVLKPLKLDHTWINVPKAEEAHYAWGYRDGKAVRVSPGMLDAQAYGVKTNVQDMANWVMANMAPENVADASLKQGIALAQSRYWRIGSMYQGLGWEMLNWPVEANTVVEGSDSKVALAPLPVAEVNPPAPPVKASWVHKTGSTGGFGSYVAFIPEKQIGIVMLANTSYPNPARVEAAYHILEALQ
Sequence of Beta-lactamase OXA-1 (P13661 whole entry): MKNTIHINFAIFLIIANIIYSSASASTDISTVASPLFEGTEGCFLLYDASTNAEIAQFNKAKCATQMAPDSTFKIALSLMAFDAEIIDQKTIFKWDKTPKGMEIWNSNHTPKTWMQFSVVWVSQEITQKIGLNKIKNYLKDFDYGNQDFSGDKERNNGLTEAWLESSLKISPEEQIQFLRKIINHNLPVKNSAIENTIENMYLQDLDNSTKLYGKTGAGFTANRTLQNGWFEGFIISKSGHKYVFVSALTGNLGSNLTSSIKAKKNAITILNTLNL
Sequence of Beta-lactamase CTX-M-14 (Q9L5C7 whole entry): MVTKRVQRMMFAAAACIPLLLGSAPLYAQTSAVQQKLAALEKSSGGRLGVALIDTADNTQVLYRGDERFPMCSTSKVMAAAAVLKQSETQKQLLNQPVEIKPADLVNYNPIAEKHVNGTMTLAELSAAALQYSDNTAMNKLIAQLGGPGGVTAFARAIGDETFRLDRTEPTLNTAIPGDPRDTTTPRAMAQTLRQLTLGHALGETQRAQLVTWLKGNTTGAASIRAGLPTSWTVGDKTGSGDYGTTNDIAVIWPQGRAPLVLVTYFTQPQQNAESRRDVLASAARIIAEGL
Sequence of Beta-lactamase TEM-1 (Q4GY26 whole entry): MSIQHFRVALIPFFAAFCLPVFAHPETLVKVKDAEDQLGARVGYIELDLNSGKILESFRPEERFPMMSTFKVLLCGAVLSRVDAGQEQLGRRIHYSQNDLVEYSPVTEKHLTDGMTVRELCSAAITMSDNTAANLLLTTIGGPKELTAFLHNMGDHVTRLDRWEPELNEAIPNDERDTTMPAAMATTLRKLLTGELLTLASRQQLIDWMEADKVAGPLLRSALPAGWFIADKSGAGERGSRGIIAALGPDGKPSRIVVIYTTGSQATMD
Sequence of Beta-lactamase OXA-23 (Q9L4P2 whole entry): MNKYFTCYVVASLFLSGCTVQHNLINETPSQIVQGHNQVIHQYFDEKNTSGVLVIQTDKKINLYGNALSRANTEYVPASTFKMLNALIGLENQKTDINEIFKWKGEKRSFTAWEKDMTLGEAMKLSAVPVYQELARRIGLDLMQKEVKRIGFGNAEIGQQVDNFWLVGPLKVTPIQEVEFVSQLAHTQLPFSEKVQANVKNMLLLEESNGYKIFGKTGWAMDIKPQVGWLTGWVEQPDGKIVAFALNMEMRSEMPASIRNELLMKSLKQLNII
Sequence of Carbapenem-hydrolyzing beta-lactamase KPC (Q9F663 whole entry): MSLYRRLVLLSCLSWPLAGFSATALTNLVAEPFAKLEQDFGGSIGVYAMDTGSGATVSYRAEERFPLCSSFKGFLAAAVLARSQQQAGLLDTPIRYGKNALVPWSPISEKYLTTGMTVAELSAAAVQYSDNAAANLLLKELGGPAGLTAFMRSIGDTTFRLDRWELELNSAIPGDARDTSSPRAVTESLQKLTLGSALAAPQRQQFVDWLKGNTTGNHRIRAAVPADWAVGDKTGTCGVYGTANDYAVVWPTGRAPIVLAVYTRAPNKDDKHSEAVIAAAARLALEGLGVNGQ

SMILES: COC(=O)[C@]1(CS)N[C@H](C(=O)O)CS1
Ki [4]: 380 nM | Ki ([5]; read-out: Ki): 5200 nM | Ki ([6]; read-out: Ki): 1000 nM | Ki [7]: 160 nM | Ki [8]: 10000 nM

SMILES: Cc1oc(C)c(S(N)(=O)=O)c1C(=O)O
Ki [9]: 2810 nM | Ki [10]: 220 nM

SMILES: COC(=O)[C@]1(CS)N[C@H](C(=O)O)C(C)(C)S1
Ki [4]: 750 nM | Ki ([5]; read-out: Ki): 440 nM | Ki ([6]; read-out: Ki): 460 nM | Ki [7]: 1300 nM | Ki [8]: 20000 nM

SMILES: Nc1nc2cccc(-c3ccc(S(N)(=O)=O)c(S(N)(=O)=O)c3-c3nn[nH]n3)c2[nH]1
IC50 [11]: 0.58 nM | IC50 ([12]; read-out: IC50): 0.264 nM

SMILES: CCc1c(C(=O)O)c(S(N)(=O)=O)c(CC)n1C
Ki [9]: 20 nM | Ki [10]: 260 nM

SMILES: O=C(O)c1cccc(C(O)P(=O)(O)O)n1 (stereo not drawn)
IC50 [21]: 1900 nM | IC50 [24]: 322 nM | IC50 [25]: 7200 nM | IC50 [26]: 2050 nM

SMILES: NC(=O)[C@@H]1CC[C@@H]2CN1C(=O)N2OS(=O)(=O)O [AVIBACTAM]
IC50 [27]: 44 nM | IC50 [28]: 7 nM | IC50 [29]: 3 nM | IC50 [30]: 1 nM | IC50 [31]: 4 nM | IC50 [32]: 923 nM | IC50 [33]: 130 nM | IC50 [34]: 485 nM

SMILES: C[C@H](CS)C(=O)N1CCC[C@@H]1C(=O)O [D-CAPTOPRIL]
IC50 [35]: 72000 nM

SMILES: O=c1c2ccccc2[se]n1-c1ccccc1 [EBSELEN]
Ki ([5]; read-out: Ki): 380 nM

SMILES: NCCONC(=O)[C@@H]1CC[C@@H]2CN1C(=O)N2OS(=O)(=O)O [NACUBACTAM]
IC50 [36]: 1400 nM | IC50 [27]: 15 nM | IC50 [28]: 26 nM | IC50 [37]: 96 nM | IC50 [29]: 10 nM | IC50 [30]: 13 nM | IC50 [31]: 22 nM | IC50 [38]: 869 nM | IC50 [32]: 845 nM | IC50 [33]: 3050 nM | IC50 [34]: 1070 nM | IC50 [39]: 46400 nM

SMILES: O=C(O)CN(CC(=O)O)CC(=O)O [NITRILOTRIACETIC ACID]
IC50 [40]: 2400 nM | IC50 [41]: 1300 nM | IC50 [42]: 112000 nM

The next lines start with the values.

IC50 [1]: 14000 nM | IC50 [2]: 19000 nM | IC50 [3]: 34000 nM
SMILES: Nn1c(-c2cc3ccccc3[nH]2)n[nH]c1=S

IC50 [11]: 0.16 nM | IC50 ([12]; read-out: IC50): 0.125 nM
SMILES: Nc1nc2c(-c3ccc(S(=O)(=O)NC[C@H]4CCNC4)c(S(N)(=O)=O)c3-c3nnn[nH]3)cccc2s1

Ki [4]: 240 nM | Ki ([5]; read-out: Ki): 8200 nM | Ki ([6]; read-out: Ki): 76000 nM | Ki [13]: 570 nM | Ki [14]: 3600 nM
SMILES: O=C(O)c1ccccc1CNn1c(-c2cccc(-c3ccccc3)c2)n[nH]c1=S

Ki [4]: 350 nM | Ki ([5]; read-out: Ki): 99800 nM | Ki [6]: Not Active | Ki [13]: 270 nM | Ki [14]: 5500 nM
SMILES: O=C(O)CCCn1c(-c2cccc(-c3ccccc3)c2)n[nH]c1=S

IC50 [15]: 2930 nM | IC50 [16]: 280 nM | IC50 [17]: 4860 nM | IC50 [18]: 6680 nM
SMILES: O=C(O)C1=C(CSc2nnc(-c3ccc(-n4[se]c5ccccc5c4=O)cc3)[nH]2)CSC2[C@@H](NC(=O)c3ccccc3)C(=O)N12 (stereo partly drawn)

pIC50 [19]: 7.7 | pIC50 [11]: 9.2 | IC50 ([12]; read-out: pIC50 (converted)): 126 nM
SMILES: NS(=O)(=O)n1ccc(-c2ccc(F)cc2)c1C(=O)O

IC50 [20]: 1.26 nM | pIC50 [11]: 8.5 | IC50 ([12]; read-out: pIC50 (converted)): 10 nM | pIC50 [21]: 8.1
SMILES: CC(C)c1cccc2c1N=C(C(=O)O)C2c1ccc(CS(C)(=O)=O)c(Cl)c1 (stereo not drawn)

IC50 [22]: 67300 nM | IC50 [23]: 40 nM
SMILES: NS(=O)(=O)n1ccc(-c2ccc(C3CCNCC3)cc2)c1C(=O)O

Ki [4]: 340 nM | Ki [5]: Not Active | Ki [6]: Not Active | Ki [13]: 1270 nM | Ki [14]: 4690 nM
SMILES: O=C(O)c1ccccc1CCn1c(-c2cccc(OCCN3CCOCC3)c2)n[nH]c1=S
